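Grown in 96-well plates, cells were treated for 48 hours with each compound at five concentrations. Insufficient inhibition: endpoint recorded as highest concentration tested. At the GI50, growth is halved. Definition used: TGI = concentration required for complete inhibition of growth.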
Columns and labels:
Assay in all cases: inhibition of tumour cell growth, NCI panel, 48 h
UO-31 renal = test system: UO-31 renal
RPMI-8226 leukemia = test system: RPMI-8226 leukemia
MOLT-4 leukemia = test system: MOLT-4 leukemia
MALME-3M melanoma = test system: MALME-3M melanoma
HCC-2998 colon = test system: HCC-2998 colon
SF-295 CNS = test system: SF-295 CNS
SK-OV-3 ovarian = test system: SK-OV-3 ovarian
SN12C renal = test system: SN12C renal
COLO 205 colon = test system: COLO 205 colon
ACHN renal = test system: ACHN renal

Compound | TGI (UO-31 renal) [µM] | TGI (RPMI-8226 leukemia) [µM] | TGI (MOLT-4 leukemia) [µM] | TGI (MALME-3M melanoma) [µM] | TGI (HCC-2998 colon) [µM] | TGI (SF-295 CNS) [µM] | TGI (SK-OV-3 ovarian) [µM] | TGI (SN12C renal) [µM] | TGI (COLO 205 colon) [µM] | TGI (ACHN renal) [µM] | GI50 (UO-31 renal) [nM] | GI50 (RPMI-8226 leukemia) [nM] | GI50 (MOLT-4 leukemia) [nM] | GI50 (MALME-3M melanoma) [nM] | GI50 (HCC-2998 colon) [nM] | GI50 (SF-295 CNS) [nM] | GI50 (SK-OV-3 ovarian) [nM] | GI50 (SN12C renal) [nM] | GI50 (COLO 205 colon) [nM] | GI50 (ACHN renal) [nM]
c1ccc(CN2CCc3[nH]c4ccccc4c3C2)cc1 | 79.2 | 69.3 | 66.1 | 35 | 30.1 | 65.9 | 98.4 | > 78.7 | 31.9 | 99.8 | – | – | – | – | – | – | – | – | – | –
CCC/C=C\C=C\C1(NS(=O)(=O)c2ccc(C)cc2)CCC(C(C)(C)C)CC1 (stereo not given) | 59 | 27.2 | 24 | 47.9 | 34.3 | 51.2 | 65.2 | 23.5 | 28.1 | 53.7 | – | – | – | – | – | – | – | – | – | –
COCCOCCOCc1n(Cc2ccc3ccccc3c2)c2ccccc2[n+]1Cc1ccc2ccccc2c1 | 4.58 | 1.15 | 2.43 | 1.38 | 2.06 | 2.16 | 2.49 | 1.46 | 1.15 | 5.37 | 1830 | 117 | 693 | 351 | 560 | 691 | 1140 | 372 | 270 | 2160

Source: PubChem BioAssay (NCI)
